Measured values reported in paper PMC3538727, “Design, Synthesis and Biological Evaluation of Novel Piperazine Derivatives as CCR5 Antagonists” (PLoS ONE, 2013).
Entries after “also recorded” stand apart in the source; their conditions may differ. Read-outs that look alike come from different tables or passages of the source.

How the values were obtained:
[1] = molecular target: T1, CCR5 (Homo sapiens, UniProt P51681); assay: Cell-cell fusion assay (CCF assay, CCR5-mediated fusion); format: cell-based; conditions: for IC50 / inhibition at 10 µM / inhibition rate (10 µM), CCR5 fusion activity: mean of at least two experiments, DMSO as negative control; for inhibition at 10 µM: CCR5, read-out: inhibition rate (10 µM), CCR5 fusion activity; for fold loss of CCR5 fusion potency in comparison to 9e: relative to 9e
T1 construct: expressed in transfected cells
T1 sequence (P51681 whole entry, the tested form may be a part): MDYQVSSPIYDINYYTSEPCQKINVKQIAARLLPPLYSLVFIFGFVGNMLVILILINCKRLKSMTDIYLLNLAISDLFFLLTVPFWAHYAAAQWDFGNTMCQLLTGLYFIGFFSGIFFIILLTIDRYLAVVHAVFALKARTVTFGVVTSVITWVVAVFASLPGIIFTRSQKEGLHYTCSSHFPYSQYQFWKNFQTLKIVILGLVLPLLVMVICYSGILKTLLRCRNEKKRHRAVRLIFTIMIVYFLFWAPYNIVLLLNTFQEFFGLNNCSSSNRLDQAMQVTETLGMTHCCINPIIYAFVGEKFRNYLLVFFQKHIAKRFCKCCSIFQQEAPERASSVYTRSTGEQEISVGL
Source text: A total of 21 novel piperazine derivatives 9a–h, 13a–d, 17, and 23a–h were screened for their inhibitory activity against cell-cell fusion between target cells expressing CD4/CCR5 and effector cells expressing the envelope protein of HIV-1, gp-120 (fusion assay).
Effector cell line: This cell line express HIV envelope protein gp160 and chimera protein Rn-Dn. Rn-Dn is consist of the N terminal of renilla luciferase and the N terminal of DnaE intein from Anacystis nidulans R2 PCC7942.
Target cell line: This cell line express chemokine receptor 5(CCR5), CD4 protein and chimera protein Dc-Rc. Dc-Rc is consist of the C teminal of renilla luceferase and the C teminal of NnaE intein from Anacystis nidulans R2 PCC7942.
The cell-cell fusion assay was performed as described previously.The effector cells were plated in 24 well white culture plates at 7.5×10^4 cell per well in DMEM supplemented with 10% FBS, 800 µg/mL G418. The target cells in the growth medium were then added to the plates at 7.5×10^4 cells/50 µL/well and incubated for 5 hours. At the end of coculture, 70 µL of renilla luceferase assay lysis was added into each well, and the cultures were gently shaken for 15 min. At the same time, add 20 µl of Renilla Luciferase Assay Reagent to the luminometer tube. Add 20 µl of cell lysate to the tube. Mix quickly by flicking the tube for 1 second. Place the tube in FB12 luminometer and initiate measurement. Luminescence was integrated over 1 second with a 2-second delay. When small molecule compounds needed to be added to the CCF assay system, the compounds were diluted manually in DMSO. Then, 10 µL of the diluted compounds was added to the effector cells just before the addition of target cells, thus making the final concentration of DMSO in the coculture 0.5%.

[2] = system: recombinant HIV-1 virus pseudotyped with the envelope proteins of the CCR5-tropic virus; assay: microbe, parasite or virus in culture; format: cell-based; conditions: for inhibition at 10 µM: Human immunodeficiency virus 1, SUP-T1, read-out: inhibition rate (10 µM), antiviral activity
Method: Fluorophenyl analogs 9e–g, phenyl, chlorophenyl, and trifluorophenyl analog 23a–c, and cyclohexyl analog 23 h were evaluated for their anti-HIV activity using a recombinant HIV-1 virus pseudotyped with the envelope proteins of the CCR5-tropic virus (HIV-1 single cycle antiviral assay). For overall estimation of the therapeutic potential of these novel CCR5 antagonists, maraviroc was used as a positive control.
HIV-1 proviral indicator construct pNL-Luc-E- contains a full-length HIV-1 genome, in which env was replaced by firefly Luciferase coding sequence. pENV-Ad8 expresses R5-tropic envelope (AD8).
Single-cycle HIV-1 replication assays were performed as described previously. In brief, 4×10^5 293T cells were co-transfected with 0.4 µg of pNL-Luc-E- and 0.4 µg of pENV-R5. After 48h, the supernatant containing pseudovirion was harvested by filtration through a 0.45 µm filter and the amount of viral capsid protein was measured by p24 antigen capture ELISA (Biomerieux). The resultant supernatant (10 µL) was used to infect SupT1 cells (1×10^5) in 96-well plates in the presence of testing compound at the concentration indicated. The SupT1 cells were lysed 48h post-infection and firefly luciferase activities were determined using a firefly Luciferase Assay System (Promega). Values were normalized to the control group treated with DMSO, and represented relative infectivity of each sample testing.

[3] = mean of two experiments, DMSO as negative control

| Molecule | melting point [°C] | inhibition at 10 µM [1] [%] | IC50 [1] [µM] | further results |
| --- | --- | --- | --- | --- |
| N#Cc1ccc(N2CCN(CCC(NC(=O)c3ccc(F)cc3)c3ccccc3)CC2)cc1 (centres unmarked) [Compound 9e] | 160 to 162 | – | 0.64 | inhibition rate (10 µM), antiviral activity [2, 3]: weak anti-HIV activity; inhibition at 10 µM [2]: 23.8% |
| N#Cc1ccc(N2CCN(CCC(NC(=O)c3ccc(F)cc3)c3ccc(Cl)c(Cl)c3)CC2)cc1 (centres unmarked) [Compound 9g] | 85 to 88 | – | 10 | fold loss of CCR5 fusion potency in comparison to 9e [1]: more than 15 fold; inhibition at 10 µM [2]: 2.9% |
| N#Cc1ccc(N2CCN(CCC(NC(=O)c3ccc(C(F)(F)F)cc3)c3ccccc3)CC2)cc1 (centres unmarked) [Compound 23c] | 158 to 160 | – | 10 | fold loss of CCR5 fusion potency in comparison to 9e [1]: 15 fold; inhibition at 10 µM [2]: 24.6% |
| N#Cc1ccc(N2CCN(CCC(NC(=O)C3CCCCC3)c3ccccc3)CC2)cc1 (centres unmarked) [Compound 23h] | – | – | 6.29 | IC50 ([2]; Human immunodeficiency virus 1, SUP-T1, read-out: IC50 (µM), antiviral activity): 0.44 µM; inhibition at 10 µM [2]: 66.5% |
| N#Cc1ccc(N2CCN(CCC(NC(=O)c3ccc(F)cc3)c3ccc(Cl)cc3)CC2)cc1 (centres unmarked) [Compound 9f] | 121 to 123 | – | 3.7 | fold loss of CCR5 fusion potency in comparison to 9e [1]: 5 fold; inhibition rate (10 µM), antiviral activity [2, 3]: inactive |
| CC(=O)N1CCC(C(=O)NC(CCN2CCN(c3ccc(C#N)cc3)CC2)c2ccccc2)CC1 (centres unmarked) [Compound 23e] | 100 to 105 | – | – | inhibition rate (10 µM), CCR5 fusion activity [1]: complete loss in fusion activity; also recorded: inactive |
| maraviroc [reference compound] | – | – | – | inhibition rate (10 µM), antiviral activity [2, 3]: 96.8%; IC50 ([2]; read-out: IC50 (µM), antiviral activity, mean of two experiments, DMSO as negative control): 0.0011 µM |
| N#Cc1ccc(N2CCN(CCC(NC(=O)c3ccccc3)c3ccccc3)CC2)cc1 (centres unmarked) [Compound 23a] | 152 to 155 | – | 2.44 | fold loss of CCR5 fusion potency in comparison to 9e [1]: 4 fold; inhibition at 10 µM [2]: 28.9% |
| N#Cc1ccc(N2CCN(CCC(NC(=O)c3ccc(Cl)cc3)c3ccccc3)CC2)cc1 (centres unmarked) [Compound 23b] | 143 to 145 | – | 2.87 | fold loss of CCR5 fusion potency in comparison to 9e [1]: 5 fold; inhibition at 10 µM [2]: 29.9% |
| N#Cc1ccc(N2CCN(CCC(NC(=O)C3CCN(C(=O)c4ccccc4)CC3)c3ccccc3)CC2)cc1 (centres unmarked) [Compound 23f] | 121 to 124 | 15 | – | – |
| N#Cc1ccc(N2CCN(CCCN(C(=O)c3ccc(F)cc3)c3ccccc3)CC2)cc1 [Compound 17, N-(3-(4-(4-cyanophenyl)piperazin-1-yl)propyl)-4-fluoro-N-phenylbenzamide] | 82 to 84 | – | – | inhibition rate (10 µM), CCR5 fusion activity [1]: inactive |

The next lines start with results.

| melting point [°C] | inhibition at 10 µM [1] [%] | Molecule | IC50 [1] [µM] | further results |
| --- | --- | --- | --- | --- |
| 165 to 167 | 47 | Cc1ccc(N2CCN(CCC(NC(=O)c3ccccc3)c3ccccc3)CC2)cc1 (centres unmarked) [Compound 9a] | – | – |
| 155 to 158 | 20 | CC(C)c1ccc(C(=O)NC(CCN2CCN(c3ccc(C#N)cc3)CC2)c2ccccc2)cc1 (centres unmarked) [Compound 23d] | – | – |
| 98 to 102 | 25 | N#Cc1ccc(N2CCN(C(=O)CC(NC(=O)c3ccc(F)cc3)c3ccccc3)CC2)cc1 (centres unmarked) [Compound 13d, N-(3-(4-(4-cyanophenyl)piperazin-1-yl)-3-oxo-1-phenylpropyl)-4-fluoro-benzamide] | – | – |
| 132 to 136 | – | N#Cc1ccc(N2CCN(CCC(NC(=O)c3ccco3)c3ccccc3)CC2)cc1 (centres unmarked) [Compound 23g] | – | inhibition rate (10 µM), CCR5 fusion activity [1]: inactive |
| 83 to 87 | – | N#Cc1ccc(CN2CCN(CCC(NC(=O)c3ccc(F)cc3)c3ccccc3)CC2)cc1 (centres unmarked) [Compound 13c] | – | inhibition rate (10 µM), CCR5 fusion activity [1]: inactive |
| 115 to 119 | – | N#CCc1ccc(N2CCN(CCC(NC(=O)c3ccc(F)cc3)c3ccccc3)CC2)cc1 (centres unmarked) [Compound 13a] | – | inhibition rate (10 µM), CCR5 fusion activity [1]: inactive |
| 152 to 154 | 26 | O=C(NC(CCN1CCN(c2ccc(F)cc2)CC1)c1ccccc1)c1ccccc1 (centres unmarked) [Compound 9d] | – | – |
| 80 to 84 | 22 | N#Cc1ccc(C(=O)N2CCN(CCC(NC(=O)c3ccc(F)cc3)c3ccccc3)CC2)cc1 (centres unmarked) [Compound 13b] | – | – |
| 157 to 159 | 41 | O=C(NC(CCN1CCN(c2ccc(F)cc2)CC1)c1ccccc1)c1ccc(F)cc1 (centres unmarked) [Compound 9c] | – | – |
| 171 to 173 | 35 | Cc1ccc(N2CCN(CCC(NC(=O)c3ccc(F)cc3)c3ccccc3)CC2)cc1 (centres unmarked) [Compound 9b] | – | – |
| – | 20 | NC(=O)c1ccc(N2CCN(CCC(NC(=O)c3ccc(F)cc3)c3ccccc3)CC2)cc1 (centres unmarked) [Compound 9h] | – | – |
